# Results as given in patent US20070072246A1, “Cell-based assays for determining drug action” (priority 2003, published 2007).
# Test system: PBMC and endothelial cell co-culture
# Assay: SAg system: PBMC and endothelial cell co-culture stimulated with superantigen
# Assay type: cell-based, human
# Conditions: not given
row,Molecule,activity in the SAg system
1,Cc1ccc(-c2nn(C(C)(C)C)c3ncnc(N)c23)cc1 [PP1],active
2,IL-1 receptor antagonist: Recombinant human IL-1ra,detects inhibition
3,CC(C)(C)n1nc(-c2ccc(Cl)cc2)c2c(N)ncnc21 [PP2],active
4,"IL-10: Recombinant human IL-10 (protein, UniProt P22301 19-178, looked up) Interleukin-10: SPGQGTQSENSCTHFPGNLPNMLRDLRDAFSRVKTFFQMKDQLDNLLLKESLLEDFKGYLGCQALSEMIQFYLEEVMPQAENQDPDIKAHVNSLGENLKTLRLRLRRCHRFLPCENKSKAVEQVKNAFNKLQEKGIYKAMSEFDIFINYIEAYMTMKIRN",active

# Same assay, conditions: 24 hr SAg stimulation; non-toxic concentrations
row,Molecule,activity in the SAg system
1,CO[C@H]1C[C@@H]2CC[C@@H](C)[C@@](O)(O2)C(=O)C(=O)N2CCCC[C@H]2C(=O)O[C@H]([C@H](C)C[C@@H]2CC[C@@H](O)[C@H](OC)C2)CC(=O)[C@H](C)/C=C(\C)[C@@H](O)[C@@H](OC)C(=O)[C@H](C)C[C@H](C)/C=C/C=C/C=C/1C [rapamycin],active
2,COc1cc2ncnc(Nc3ccc(O)cc3)c2cc1OC [WHI-P131],active
3,CCCCOc1cc(CC2CNC(=O)N2)ccc1OC (stereo not drawn) [Ro-20-1274],active
4,CC(C)N(CCC(=O)c1ccc2ccccc2c1)Cc1ccccc1 [ZM39923],active
5,COc1ccc(C2CNC(=O)C2)cc1OC1CCCC1 (stereo not drawn) [rolipram],active
6,Nc1nccc(-c2c(-c3ccc(F)cc3)ncn2C2CCNCC2)n1 [SB220025],retain activity

# Test system: primary human endothelial cells (EC)
# Assay: 3C system: endothelial cells stimulated with IL-1β, TNF-α and IFN-γ, readout parameters by cell-based ELISA
# Conditions: 24 hr cytokine activation; non-toxic concentrations
# Experimental: Cell culture. Human umbilical vein endothelial cells (HUVEC) were obtained from Cascade Biologics (Portland, Oreg.) and cultured in EGM-2 medium containing supplements provided by the manufacturer and 2% heat inactivated fetal bovine serum (Hyclone, Logan, Utah) and subcultured with 0.05% trypsin-0.53 mM EDTA (Mediatech, Herndon, Va.) as described by the manufacturer. […] Experiments were performed by culturing HUVEC in microtiter plates (Falcon; BD Biosciences), in the presence of cytokines (IL-1β, 1 ng/ml; TNF-α, 5 ng/ml; and IFN-γ, 100 ng/ml), activators (SAg, 20 ng/ml or LPS, 0.2 ng/ml), and/or PBMC (7.5×10^4) for the indicated times. Drugs were added 1 hr before stimulation and were present during the whole 24 hr stimulation period.
# Cell-based ELISAs. […] Briefly, microtiter plates containing treated and stimulated HUVEC (or HUVEC/PBMC) were blocked, and then incubated with primary antibodies or isotype control antibodies (0.01-0.5 μg/ml) for 1 hr. […] Plates were washed and developed with TMB substrate (Clinical Science Products, Mansfield, Mass.) and the absorbance (OD) was read at 450 nm (subtracting the background absorbance at 650 nm) with a Molecular Devices SpectraMAX 190 plate reader (Molecular Devices, Sunnyvale, Calif.).
# Data analysis. Mean OD values for each parameter were calculated from triplicate samples per experiment. […]
row,Molecule,activity in the 3C (endothelial inflammation) system
1,O=c1cc(-c2ccc(O)cc2)oc2cc(O)cc(O)c12 [apigenin],induces a characteristic response profile
2,COc1cccc(-c2cc(=O)c3ccccc3o2)c1N [PD098059],induces a characteristic response profile
